#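 All cell lines were grown in 96-well plates and treated with compound for 48 hours. At the TGI there is no net growth.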
# How the values were obtained:
# Assay in all cases: growth of human tumour cells (NCI), 48 h
# MDA-N = system: MDA-N
# SNB-78 CNS = system: SNB-78 CNS
# SK-MEL-5 melanoma = system: SK-MEL-5 melanoma
# HCT-116 colon = system: HCT-116 colon
# UACC-62 melanoma = system: UACC-62 melanoma
# ACHN renal = system: ACHN renal
# HCT-15 colon = system: HCT-15 colon
# NCI-H23 lung = system: NCI-H23 lung
# DMS 273 small cell lung = system: DMS 273 small cell lung
# T-47D breast = system: T-47D breast
# COLO 205 colon = system: COLO 205 colon
# M14 melanoma = system: M14 melanoma
# RPMI-8226 leukemia = system: RPMI-8226 leukemia
# SK-MEL-28 melanoma = system: SK-MEL-28 melanoma
# MDA-MB-435 = system: MDA-MB-435
# OVCAR-3 ovarian = system: OVCAR-3 ovarian
# LXFL 529 NSCLC = system: LXFL 529 NSCLC
# NCI-H460 lung = system: NCI-H460 lung
# SF-268 CNS = system: SF-268 CNS
# RXF-631 renal = system: RXF-631 renal
# IGROV1 ovarian = system: IGROV1 ovarian
# EKVX NSCLC = system: EKVX NSCLC
# KM20L2 colon = system: KM20L2 colon
# SNB-19 CNS = system: SNB-19 CNS
# HT29 colon = system: HT29 colon
# HCC-2998 colon = system: HCC-2998 colon
# SF-295 CNS = system: SF-295 CNS
# OVCAR-8 ovarian = system: OVCAR-8 ovarian
# SNB-75 CNS = system: SNB-75 CNS
# TK-10 renal = system: TK-10 renal
# LOX IMVI melanoma = system: LOX IMVI melanoma
# SW-620 colon = system: SW-620 colon
# DLD-1 colon = system: DLD-1 colon
# MALME-3M melanoma = system: MALME-3M melanoma
# CCRF-CEM leukemia = system: CCRF-CEM leukemia
# MCF7 breast = system: MCF7 breast
# HOP-18 NSCLC = system: HOP-18 NSCLC
# OVCAR-4 ovarian = system: OVCAR-4 ovarian
# SN12C renal = system: SN12C renal
# UO-31 renal = system: UO-31 renal
# DU-145 prostate = system: DU-145 prostate
# RXF 393 renal = system: RXF 393 renal
# KM12 colon = system: KM12 colon
# UACC-257 melanoma = system: UACC-257 melanoma
# NCI-H226 lung = system: NCI-H226 lung
# XF 498 CNS = system: XF 498 CNS
# BT-549 breast = system: BT-549 breast
# HOP-62 NSCLC = system: HOP-62 NSCLC
# SK-MEL-2 melanoma = system: SK-MEL-2 melanoma
# SK-OV-3 ovarian = system: SK-OV-3 ovarian
# OVCAR-5 ovarian = system: OVCAR-5 ovarian
# HS 578T breast = system: HS 578T breast
# SR leukemia = system: SR leukemia
# CAKI-1 renal = system: CAKI-1 renal
# A549 NSCLC = system: A549 NSCLC
# DMS 114 small cell lung = system: DMS 114 small cell lung
# A498 renal = system: A498 renal
# K-562 leukemia = system: K-562 leukemia
# PC-3 prostate = system: PC-3 prostate
# 786-0 renal = system: 786-0 renal
# HL-60(TB) leukemia = system: HL-60(TB) leukemia
# SF-539 CNS = system: SF-539 CNS
# U251 CNS = system: U251 CNS
# M19-MEL melanoma = system: M19-MEL melanoma
# NCI-H522 lung = system: NCI-H522 lung
# MOLT-4 leukemia = system: MOLT-4 leukemia
# HOP-92 NSCLC = system: HOP-92 NSCLC
compound,measurement,setting,value
C=C(CN(C)C)C(=O)c1ccc(OC2OC(COC(C)=O)C(OC(C)=O)C(OC(C)=O)C2OC(C)=O)cc1 (stereo unspecified),TGI,MDA-N,11.1 µM
same,TGI,SNB-78 CNS,50.8 µM
same,TGI,SK-MEL-5 melanoma,20.3 µM
same,TGI,HCT-116 colon,6.12 µM
same,TGI,UACC-62 melanoma,22.4 µM
same,TGI,ACHN renal,3.21 µM
same,TGI,HCT-15 colon,11.3 µM
same,TGI,NCI-H23 lung,43.3 µM
same,TGI,DMS 273 small cell lung,> 51.7 µM
same,TGI,T-47D breast,15.7 µM
same,TGI,COLO 205 colon,3.17 µM
same,TGI,M14 melanoma,11.2 µM
same,TGI,RPMI-8226 leukemia,> 100 µM
same,TGI,SK-MEL-28 melanoma,9.22 µM
same,TGI,MDA-MB-435,14.2 µM
same,TGI,OVCAR-3 ovarian,14.5 µM
same,TGI,LXFL 529 NSCLC,2.9 µM
same,TGI,NCI-H460 lung,40.8 µM
same,TGI,SF-268 CNS,62 µM
same,TGI,RXF-631 renal,29.3 µM
same,TGI,IGROV1 ovarian,36.1 µM
same,TGI,EKVX NSCLC,54.2 µM
same,TGI,KM20L2 colon,40.8 µM
same,TGI,SNB-19 CNS,39.4 µM
same,TGI,HT29 colon,12.2 µM
same,TGI,HCC-2998 colon,36.8 µM
same,TGI,SF-295 CNS,36 µM
same,TGI,OVCAR-8 ovarian,19.2 µM
same,TGI,SNB-75 CNS,38.5 µM
same,TGI,TK-10 renal,7.06 µM
same,TGI,LOX IMVI melanoma,8.49 µM
same,TGI,SW-620 colon,3.17 µM
same,TGI,DLD-1 colon,3.83 µM
same,TGI,MALME-3M melanoma,7.51 µM
same,TGI,CCRF-CEM leukemia,0.342 µM
same,TGI,MCF7 breast,5.51 µM
same,TGI,HOP-18 NSCLC,9.82 µM
same,TGI,OVCAR-4 ovarian,> 29.2 µM
same,TGI,SN12C renal,26.2 µM
same,TGI,UO-31 renal,6.73 µM
same,TGI,DU-145 prostate,31.3 µM
same,TGI,RXF 393 renal,3.69 µM
same,TGI,KM12 colon,41.6 µM
same,TGI,UACC-257 melanoma,5.94 µM
same,TGI,NCI-H226 lung,19.8 µM
same,TGI,XF 498 CNS,9.77 µM
same,TGI,BT-549 breast,10.8 µM
same,TGI,HOP-62 NSCLC,24.3 µM
same,TGI,SK-MEL-2 melanoma,33.3 µM
same,TGI,SK-OV-3 ovarian,35.5 µM
same,TGI,OVCAR-5 ovarian,37.4 µM
same,TGI,HS 578T breast,> 83.7 µM
same,TGI,SR leukemia,4.94 µM
same,TGI,CAKI-1 renal,9.54 µM
same,TGI,A549 NSCLC,45.2 µM
same,TGI,DMS 114 small cell lung,14.6 µM
same,TGI,A498 renal,21 µM
same,TGI,K-562 leukemia,0.474 µM
same,TGI,PC-3 prostate,32 µM
same,TGI,786-0 renal,3.82 µM
same,TGI,HL-60(TB) leukemia,> 100 µM
same,TGI,SF-539 CNS,30.6 µM
same,TGI,U251 CNS,46.2 µM
NC1CCC[C@H]1O (stereo partly specified),TGI,SNB-78 CNS,> 100 µM
same,TGI,SK-MEL-5 melanoma,> 100 µM
same,TGI,HCT-116 colon,> 100 µM
same,TGI,UACC-62 melanoma,> 100 µM
same,TGI,ACHN renal,> 100 µM
same,TGI,HCT-15 colon,> 100 µM
same,TGI,NCI-H23 lung,> 100 µM
same,TGI,DMS 273 small cell lung,> 100 µM
same,TGI,COLO 205 colon,> 100 µM
same,TGI,M14 melanoma,> 100 µM
same,TGI,RPMI-8226 leukemia,> 100 µM
same,TGI,SK-MEL-28 melanoma,> 100 µM
same,TGI,OVCAR-3 ovarian,> 100 µM
same,TGI,NCI-H460 lung,> 100 µM
same,TGI,SF-268 CNS,> 100 µM
same,TGI,RXF-631 renal,> 100 µM
same,TGI,IGROV1 ovarian,> 100 µM
same,TGI,EKVX NSCLC,> 100 µM
same,TGI,KM20L2 colon,> 100 µM
same,TGI,SNB-19 CNS,> 100 µM
same,TGI,HT29 colon,> 100 µM
same,TGI,HCC-2998 colon,> 100 µM
same,TGI,SF-295 CNS,> 100 µM
same,TGI,M19-MEL melanoma,> 100 µM
same,TGI,NCI-H522 lung,> 100 µM
same,TGI,OVCAR-8 ovarian,> 100 µM
same,TGI,SNB-75 CNS,> 100 µM
same,TGI,TK-10 renal,> 100 µM
same,TGI,LOX IMVI melanoma,> 100 µM
same,TGI,SW-620 colon,> 100 µM
same,TGI,DLD-1 colon,> 100 µM
same,TGI,MALME-3M melanoma,> 100 µM
same,TGI,CCRF-CEM leukemia,> 100 µM
same,TGI,HOP-18 NSCLC,> 100 µM
same,TGI,OVCAR-4 ovarian,> 100 µM
same,TGI,SN12C renal,> 100 µM
same,TGI,UO-31 renal,> 100 µM
same,TGI,RXF 393 renal,> 100 µM
same,TGI,KM12 colon,> 100 µM
same,TGI,UACC-257 melanoma,> 100 µM
same,TGI,NCI-H226 lung,> 100 µM
same,TGI,XF 498 CNS,> 100 µM
same,TGI,HOP-62 NSCLC,> 100 µM
same,TGI,SK-MEL-2 melanoma,> 100 µM
same,TGI,SK-OV-3 ovarian,> 100 µM
same,TGI,A549 NSCLC,> 100 µM
same,TGI,MOLT-4 leukemia,> 100 µM
same,TGI,DMS 114 small cell lung,> 100 µM
same,TGI,HOP-92 NSCLC,> 100 µM
same,TGI,A498 renal,> 100 µM
same,TGI,K-562 leukemia,> 100 µM
same,TGI,786-0 renal,> 100 µM
same,TGI,HL-60(TB) leukemia,> 100 µM
same,TGI,SF-539 CNS,> 100 µM
same,TGI,U251 CNS,> 100 µM
C[C@]12Cc3cn[nH]c3C(=O)C1CC[C@@H]1C2CC[C@@]2(C)C1CC[C@]2(C)O (stereo partly specified),TGI,SNB-78 CNS,> 100 µM
same,TGI,SK-MEL-5 melanoma,> 100 µM
same,TGI,HCT-116 colon,> 100 µM
same,TGI,UACC-62 melanoma,> 100 µM
same,TGI,ACHN renal,> 100 µM
same,TGI,HCT-15 colon,> 100 µM
same,TGI,NCI-H23 lung,> 100 µM
same,TGI,DMS 273 small cell lung,> 100 µM
same,TGI,COLO 205 colon,> 100 µM
same,TGI,M14 melanoma,> 100 µM
same,TGI,RPMI-8226 leukemia,> 100 µM
same,TGI,SK-MEL-28 melanoma,> 100 µM
same,TGI,OVCAR-3 ovarian,> 100 µM
same,TGI,LXFL 529 NSCLC,> 100 µM
same,TGI,NCI-H460 lung,> 100 µM
same,TGI,SF-268 CNS,> 100 µM
same,TGI,RXF-631 renal,> 100 µM
same,TGI,IGROV1 ovarian,> 100 µM
same,TGI,EKVX NSCLC,> 100 µM
same,TGI,KM20L2 colon,> 100 µM
same,TGI,SNB-19 CNS,> 100 µM
same,TGI,HT29 colon,> 100 µM
same,TGI,HCC-2998 colon,> 100 µM
same,TGI,SF-295 CNS,> 100 µM
same,TGI,M19-MEL melanoma,> 100 µM
same,TGI,NCI-H522 lung,> 100 µM
same,TGI,OVCAR-8 ovarian,> 100 µM
same,TGI,SNB-75 CNS,> 100 µM
same,TGI,TK-10 renal,> 100 µM
same,TGI,LOX IMVI melanoma,> 100 µM
same,TGI,SW-620 colon,> 100 µM
same,TGI,DLD-1 colon,> 100 µM
same,TGI,MALME-3M melanoma,> 100 µM
same,TGI,CCRF-CEM leukemia,> 100 µM
same,TGI,HOP-18 NSCLC,> 100 µM
same,TGI,OVCAR-4 ovarian,> 100 µM
same,TGI,SN12C renal,> 100 µM
same,TGI,UO-31 renal,> 100 µM
same,TGI,RXF 393 renal,> 100 µM
same,TGI,KM12 colon,> 100 µM
same,TGI,UACC-257 melanoma,> 100 µM
same,TGI,NCI-H226 lung,> 100 µM
same,TGI,XF 498 CNS,> 100 µM
same,TGI,HOP-62 NSCLC,> 100 µM
same,TGI,SK-MEL-2 melanoma,> 100 µM
same,TGI,SK-OV-3 ovarian,> 100 µM
same,TGI,OVCAR-5 ovarian,> 100 µM
same,TGI,CAKI-1 renal,> 100 µM
same,TGI,A549 NSCLC,> 100 µM
same,TGI,MOLT-4 leukemia,> 100 µM
same,TGI,DMS 114 small cell lung,> 100 µM
same,TGI,HOP-92 NSCLC,> 100 µM
same,TGI,A498 renal,> 100 µM
same,TGI,K-562 leukemia,> 100 µM
same,TGI,786-0 renal,> 100 µM
same,TGI,HL-60(TB) leukemia,> 100 µM
same,TGI,SF-539 CNS,> 100 µM
same,TGI,U251 CNS,> 100 µM

# Reference: PubChem BioAssay (NCI)
